Data set [1] is described as follows: AUC (0 to infinity) in Swiss outbred mouse plasma at 2 mg/kg, po. The format is ADME, organism-based. Further details: time infinity, dose 2 mg/kg, route oral.
A short description of a further data set: in vivo. The following applies: Swiss outbred, mouse, po, 10 mg/kg.
The subject of data set [2] is Mus musculus. The data set is described as follows: AUC (0 to 10 hrs) in human RBC engrafted NOD-SCID IL-2Rgamma-null mouse infected with Plasmodium falciparum 3D7 0087/N9 at 5.7 mg/kg, po. Also on record: time < 10 hr, dose 5.7 mg/kg, route oral. It counts as ADME, organism-based, Plasma. The following applies: in vivo.
The next data set relates to Liver. The data set is described as follows: Intrinsic clearance in mouse liver microsomes. The format is ADME, Microsome. For orientation: Liver microsomes are vesicles of endoplasmic reticulum, rich in cytochrome P450 enzymes.
The subject of data set [3] is Mus musculus. The data set is described as follows: Time plasma concentration remained above 1 uM in Swiss outbred mouse plasma at 2 mg/kg, po. The format is ADME, organism-based. Further details: dose 2 mg/kg, route oral. The following applies: in vivo.
Data set [4] in a line: Cmax in human RBC engrafted NOD-SCID IL-2Rgamma-null mouse at 5.7 mg/kg, po. The format is ADME, organism-based. Also on record: dose 5.7 mg/kg, route oral. The following applies: in vivo.
In data set [5] the target is T1, Dihydroorotate dehydrogenase (Plasmodium falciparum, UniProt Q54A96).
T1 sequence (Q54A96 whole entry): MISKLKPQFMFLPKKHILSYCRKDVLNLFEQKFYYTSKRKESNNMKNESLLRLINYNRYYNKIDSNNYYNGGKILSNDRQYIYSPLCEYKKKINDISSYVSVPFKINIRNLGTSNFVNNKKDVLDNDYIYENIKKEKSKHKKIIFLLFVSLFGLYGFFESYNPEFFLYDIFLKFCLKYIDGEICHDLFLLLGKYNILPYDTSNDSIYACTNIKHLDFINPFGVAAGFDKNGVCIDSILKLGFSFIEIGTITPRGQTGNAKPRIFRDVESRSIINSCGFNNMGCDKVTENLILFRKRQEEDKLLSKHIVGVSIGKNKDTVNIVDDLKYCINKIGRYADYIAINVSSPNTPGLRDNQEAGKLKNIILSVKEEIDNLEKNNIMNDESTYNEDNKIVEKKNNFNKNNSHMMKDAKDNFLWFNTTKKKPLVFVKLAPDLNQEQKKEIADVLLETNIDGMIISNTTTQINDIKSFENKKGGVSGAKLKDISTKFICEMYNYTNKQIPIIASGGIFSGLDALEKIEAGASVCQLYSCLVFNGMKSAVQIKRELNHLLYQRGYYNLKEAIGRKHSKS
Description: Inhibition of Plasmodium falciparum C-terminal hexa-His tagged DHODH expressed in Escherichia coli by DCIP reduction assay

By AUC(0-inf) is commonly meant the area under the concentration-time curve extrapolated to infinity. High values mean high exposure, low ones low exposure. A word on the Tmax: it is the time at which the peak concentration occurs. For orientation: AUC means the area under the concentration-time curve, a measure of exposure. A lower AUC goes with less exposure. For orientation: Cmax means the peak of the concentration-time curve. Broadly, the IC50 is the concentration at which inhibition is half-maximal. A lower IC50 goes with greater potency. In the case of `Cc1cc(Nc2ccc(C(F)(F)F)cc2)n2nc(C(C)(F)F)nc2n1`, the AUC(0-inf) in data set [1] is 9.48 µM·h. Besides, in “in vivo”, the Tmax stood at 4 h. Moreover, in the data set on Mus musculus [2], the AUC was found to be 2740 µM·min. The compound also showed an Intrinsic clearance in the data set on Liver of 10.1 µL/min/mg. In the data set with Mus musculus [3], the Time stood at 6 h. For the same compound, the peak level in data set [4] (Cmax) was 6.3 µM. In data set [5], this compound yielded an IC50 of 38 nM.

The values above are taken from ChEMBL document CHEMBL1955725, “Structure-guided lead optimization of triazolopyrimidine-ring substituents identifies potent Plasmodium falciparum dihydroorotate dehydrogenase inhibitors with clinical candidate potential” (J Med Chem, 2011).
